Reference: patent publication US20220315890A1, “NERVE CELL AND APPLICATION THEREOF” (FUJIFILM Corporation, priority 2021, published 2022)

Experiments:
[1] = biological target: T1, tau aggregation in hiPSC-derived nerve cells overexpressing tau (1N4R) (Homo sapiens, UniProt P10636); test: Tau aggregation: Tau oligomer antibody (T22)-positive protrusion length standardized with 4R tau antibody-positive protrusion length; assay type: cell-based; settings: at the compound concentration at which a cytoprotective action was exhibited; fluorescent staining; FIG. 8
T1 construct: expressed in transfected cells; host or cells: human iPS cell-derived nerve cells (Ngn2 / miR-9/9*-124 induced), transduced with CSII-TRE-hTau (1N4R)-IRES-Zeo lentivirus, DOX-induced
Experimental: (§1) Frozen nerve cells were thawed in a hot water bath and plated on a 96-well plate at the number of cells of about 3×10^4 cells/well or on a 12-well plate at about 30×10^4 cells/well, where the plates had been coated with poly-D-lysine (PDL) and iMatrix (Nippi, Incorporated), in a neural replating medium containing DOX (a medium obtained by adding 2% of a B27 Plus supplement, 1% of a Culture One supplement, 200 μmol/L of dbcAMP, 200 μmol/L of L-ascorbic acid, and 2 μg/mL of DOX to a Neurobasal plus:DMEM/F12 HAM=1:1 medium). In addition, 1 μmol/L of Tau Accell siRNA (Dharmacon, Inc., #A-012488-13) described in (7) below or a compound described in (9) below was added thereto. After the culture in a CO2 incubator at 37° C. for 2 days, the cells were […] and cultured for about 7 days, and then various evaluations were carried out.
The nerve cells after the overexpression of tau according to the method (4) were subjected to fluorescent staining using a tau oligomer antibody (T22) (Merck Millipore).
The cytoprotective action of the compound was measured by a CellTiter Glo assay. The effect on tau aggregation was quantified by standardizing the Tau oligomer antibody-positive protrusion length in the neurite obtained by fluorescent staining with the 4R tau antibody-positive protrusion length.

[2] = test system: hiPSC-derived nerve cells overexpressing tau (1N4R); test: Nerve cell death / cell survival by CellTiter Glo assay after overexpression of tau; assay type: cell-based, human; settings: compound added at replating, 2 days before lentivirus infection, cultured about 7 days, FIG. 8
Experimental: as §1
The decrease in cell survival rate due to overexpression of tau according to the method (4) was confirmed by the CellTiter Glo assay (Promega Corporation). It was confirmed that about 20% to 90% of nerve cell death occurred due to overexpression of tau depending on the amount of lentivirus.
According to the method (4), the drug efficacy of methylene blue and isoproterenol, which had been reported to have an inhibitory action on tau aggregation in nerve cells after the overexpression of tau, and a microtubule stabilizer epothilone D was evaluated. The cytoprotective action of the compound was measured by a CellTiter Glo assay. The effect on tau aggregation was quantified by standardizing the Tau oligomer antibody-positive protrusion length in the neurite obtained by fluorescent staining with the 4R tau antibody-positive protrusion length.

T1 sequence (P10636 1-412 isoform P10636-7): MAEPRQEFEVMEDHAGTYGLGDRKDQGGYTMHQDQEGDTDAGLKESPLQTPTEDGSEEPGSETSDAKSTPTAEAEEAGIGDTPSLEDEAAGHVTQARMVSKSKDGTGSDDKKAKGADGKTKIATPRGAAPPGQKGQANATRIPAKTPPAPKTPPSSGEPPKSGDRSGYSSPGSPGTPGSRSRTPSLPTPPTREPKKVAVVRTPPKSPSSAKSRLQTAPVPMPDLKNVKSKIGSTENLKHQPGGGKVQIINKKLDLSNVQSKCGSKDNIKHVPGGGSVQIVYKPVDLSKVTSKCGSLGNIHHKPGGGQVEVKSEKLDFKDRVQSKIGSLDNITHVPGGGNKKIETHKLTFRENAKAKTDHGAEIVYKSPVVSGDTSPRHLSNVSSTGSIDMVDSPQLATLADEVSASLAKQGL

Structure (SMILES)	effect on tau aggregation (tau polymerization) [1]	cytoprotective action (CellTiter Glo assay) [2]
CC(C)NCC(O)c1ccc(O)c(O)c1 (stereo not drawn) [isoproterenol]	partial inhibitory action on tau aggregation	partial cytoprotective action
C/C1=C/C[C@@H](/C(C)=C/c2csc(C)n2)OC(=O)C[C@H](O)C(C)(C)C(=O)[C@H](C)[C@@H](O)[C@@H](C)CCC1 [epothilone D]	not changed	partial cytoprotective action
CN(C)c1ccc2nc3ccc(=[N+](C)C)cc-3sc2c1 [methylene blue]	partial inhibitory action on tau aggregation	partial cytoprotective action
